In paper PMC9656702, “Unveiling a New Selenocyanate as a Multitarget Candidate with Anticancer, Antileishmanial and Antibacterial Potential” (Molecules, 2022):
Values after ≈ are worked out from the molar mass of the structure shown. Read-outs that look alike come from different tables or passages of the source.

What was measured:
K. pneumoniae = test: MIC and MBC assay, K. pneumoniae; assay type: cell-based, Klebsiella pneumoniae; details: for MIC / MBC: Klebsiella pneumoniae; for MIC: read-out: MIC K. pneumoniae; for MBC: read-out: MBC K. pneumoniae
Procedure: (§1) The minimum inhibitory concentration (MIC) and the minimum bactericidal concentration (MBC) values of the selenocompounds were determined in a panel of six bacterial strains as a first approach to assess their antibacterial activity. Thus, the synthesized derivatives were tested against the Gram-negative bacteria Escherichia coli (E. coli), Klebsiella pneumoniae (K. pneumoniae) and Citrobacter freundii (C. freundii); and the Gram-positive bacteria Staphylococcus aureus (S. aureus), Streptococcus faecalis (S. faecalis), and Staphylococcus epidermidis (S. epidermidis). […]
(§2) All the selenocompounds were screened for their in vitro inhibitory activity against three Gram-negative (E. coli, K. pneumoniae and C. freundii) and three Gram-positive (S. aureus, S. faecalis and S. epidermidis) bacteria. Bacterial strains were kindly provided by the Department of Microbiology and Parasitology of the University of Navarra. The bacterial cells were grown in tryptic soy agar (TSA) plates and maintained at 4 °C.
(§3) The compounds were firstly dissolved in DMSO and serially diluted in a 96-well plate in tryptic soy broth (TSB) with eleven concentrations ranging from 400 µg/mL to 0.4 µg/mL with a final volume of 100 µL. Subsequently, 100 µL of a diluted suspension of bacterial cells with an optical density of 0.125 measured at 600 nm in TSB (inoculum of approximately 10^5 CFU/mL) was added to each well and incubated at 37 °C for 24 h. After the incubation period, each well was analyzed for the presence or absence of visual growth of bacterial cells. The lowest concentration of the test compound at which no visible growth occurred was determined as the MIC values. After incubation, 10 µL of the bacterial suspension from each well that presented antibacterial activity was added to divided TSA plates and incubated at 37 °C overnight.

184B5 = test: MTT assay in nonmalignant mammary gland cells 184B5; assay type: cell-based; details: for IC50: read-out: IC50 184B5
Procedure: To assess their possible selectivity, the synthesized selenocompounds were then tested in a mammary gland (184B5) nonmalignant cell line, and the selectivity indexes (SI) were determined as the ratio of the IC50 values obtained for the nonmalignant cells and the homolog cancer cells.
(§4) The cell lines were obtained from the American Type Culture Collection (ATCC). All the cancer cell lines (HT-29, HCT-116, H1299, HTB-54, MDA-MB-231 and MCF-7) and the nontumorigenic cells (184B5) were maintained in RPMI 1640 medium (Gibco), supplemented with 10% fetal bovine serum (FBS; Gibco) and 1% antibiotics (10.00 units/mL penicillin and 10.00 mg/mL streptomycin; Gibco). Cells were preserved in tissue culture flasks at 37 °C and 5% CO2. Culture medium was replaced every three days.
(§5) The cytotoxic effect of each compound was initially tested at seven different concentrations ranging between 0.5 and 100 µM in the cell lines mentioned above. The cells were seeded (1 × 10^4 cells per well) in 96-well plates and incubated at 37 °C and 5% CO2 for 24 h. After attachment, cells were treated with either dimethyl sulfoxide (DMSO) or increasing concentrations of the corresponding selenocompound for 48 h. The effect of the compounds on cell viability was determined by the MTT assay. In brief, 20 µL of MTT (5 mg/mL) was added to each well 2.5 h prior to experiment termination. At the end of the incubation, the medium was removed, and the formazan crystals were dissolved in 50 µL of DMSO. Absorbance was measured at 550 nm on a microplate reader. IC50 values were calculated using OriginPro 8.5.1. software by nonlinear curve fitting. Selectivity indexes were calculated as the ratio of the IC50 values determined for the nonmalignant and the tumoral cells in the breast cell lines (IC50 (184B5)/IC50 (MDA-MB-231) and IC50 (184B5)/IC50 (MCF-7)). Data were obtained from at least three independent experiments performed in triplicates.

S. faecalis = test: MIC and MBC assay, S. faecalis; assay type: cell-based, Streptococcus faecalis; details: for MIC / MBC: Enterococcus faecalis; for MIC: read-out: MIC S. faecalis; for MBC: read-out: MBC S. faecalis
Procedure: as §1, §2, §3

S. epidermidis = test: MIC and MBC assay, S. epidermidis; assay type: cell-based, Staphylococcus epidermidis; details: for MIC / MBC: Staphylococcus epidermidis; for MIC: read-out: MIC S. epidermidis; for MBC: read-out: MBC S. epidermidis
Procedure: as §1, §2, §3

H1299 = test: Antiproliferative MTT assay, H1299 lung cancer cells; assay type: cell-based, human
Procedure: (§6) The antiproliferative activities of the cinnamyl and benzodioxyl derivatives were assessed against six human cell lines of three different types of cancer (colon, lung, and breast) using the 3-(4,5-dimethylthiazol-2-yl)-2,5-diphenyltetrazolium bromide (MTT) assay at seven concentrations for 48 h. The results are expressed as the IC50 values and are outlined in Table 1.
as §4, §5

MCF-7 = test: Antiproliferative MTT assay, MCF-7 breast cancer cells; assay type: cell-based, human
Procedure: as §6, §4, §5

E. coli = test: MIC and MBC assay, E. coli; assay type: cell-based, Escherichia coli; details: Gram-negative; for MBC / MIC: Escherichia coli; for MIC / MIC E. coli: 24 h at 37 °C
Procedure: as §1, §2, §3

HT-29 = test: Antiproliferative MTT assay, HT-29 colon cancer cells; assay type: cell-based, human
Procedure: as §6, §4, §5

[1] = Homo sapiens, 184B5, 48 h, nontumorigenic cells, MTT assay, 48 h, mean ± SD
[2] = nontumorigenic cells, MTT assay, 48 h, mean ± SD
[3] = Homo sapiens, NCI-H1299, 48 h, MTT assay, 48 h, mean ± SD, read-out: IC50 H1299
[4] = MTT assay, 48 h, mean ± SD, read-out: IC50 H1299
[5] = Homo sapiens, MCF7, MTT assay, 48 h, mean ± SD, read-out: IC50 MCF-7
[6] = Homo sapiens, HT-29, 48 h, MTT assay, 48 h, mean ± SD, read-out: IC50 HT-29
[7] = MTT assay, 48 h, mean ± SD, read-out: IC50 HT-29
[8] = MTT assay, 48 h, mean ± SD, read-out: IC50 MCF-7

| Structure (SMILES) | MIC (K. pneumoniae; Gram-negative, 24 h at 37 °C) [µg/mL] | IC50 (184B5; [1]) [µM] | IC50 (184B5; [2]) [µM] | MIC (S. faecalis; Gram-positive, 24 h at 37 °C) [µg/mL] | MBC S. faecalis (S. faecalis; Gram-positive) | MIC S. faecalis (S. faecalis; Gram-positive, 24 h at 37 °C) [µg/mL] | MIC S. epidermidis (S. epidermidis; Gram-positive, 24 h at 37 °C) [µg/mL] | MIC (S. epidermidis; Gram-positive, 24 h at 37 °C) [µg/mL] | IC50 (H1299; [3]) [µM] | IC50 (H1299; [4]) [µM] | IC50 (MCF-7; [5]) [µM] | MBC (E. coli) [µg/mL] | MIC (E. coli) [µg/mL] | IC50 (HT-29; [6]) [µM] | IC50 (HT-29; [7]) [µM] | MIC K. pneumoniae (K. pneumoniae; Gram-negative, 24 h at 37 °C) [µg/mL] | IC50 (MCF-7; [8]) [µM] | MIC E. coli (E. coli) [µg/mL] | also measured |
| --- | --- | --- | --- | --- | --- | --- | --- | --- | --- | --- | --- | --- | --- | --- | --- | --- | --- | --- | --- |
| N#C[Se]Cc1ccc2c(c1)OCO2 [Compound 2a, 5-(Selenocyanatomethyl)benzo[d][1,3]dioxole] | 50 (≈ 208 µM) | ~50 | 48.6 ± 2.1 | 25 (≈ 104 µM) | no bactericidal effect was observed | ≤ 25 | ≤ 25 | 12.5 (≈ 52.1 µM) | < 12 | 11.9 ± 3.7 | 59.3 ± 6.5 | 50 (≈ 208 µM) | 50 (≈ 208 µM) | < 12 | 11.9 ± 3.4 |  |  |  | MBC (K. pneumoniae; Gram-negative): 50 µg/mL (≈ 208 µM); MBC (S. faecalis; Gram-positive): > 200 µg/mL; MBC (S. epidermidis; Gram-positive): 12.5 µg/mL (≈ 52.1 µM) |
| C(=C\c1ccccc1)/C[Se][Se]C/C=C/c1ccccc1 [Compound 1b, 1,2-Dicinnamyldiselenide] | > 200 | > 100 |  | > 200 |  |  |  | > 200 | < 40 | 28.7 ± 2.6 | > 100 |  | > 200 | < 40 | 36 ± 5.4 |  |  |  | IC50 184B5 (184B5; [2]): not toxic |
| O=C(CC[Se]Cc1ccc2c(c1)OCO2)[c-]1cccc1.[Fe+2].c1cc[cH-]c1 [Compound 2c, 3-((Benzo[d][1,3]dioxol-5-ylmethyl)selanyl)-1-ferrocenylpropan-1-one] |  |  | 50.1 ± 4.5 |  |  | >200 | >200 |  |  | 45.2 ± 7.2 |  |  |  |  | 21.4 ± 4.3 | >200 | 14.8 ± 4.3 | >200 |  |
| N#C[Se]C/C=C/c1ccccc1 [Compound 1a, (E)-(3-selenocyanatoprop-1-en-1-yl)benzene] |  |  |  |  | no bactericidal effect was observed |  |  |  |  |  |  | > 200 | 100 (≈ 450 µM) |  |  |  |  |  | MIC (K. pneumoniae; 24 h): 100 µg/mL (≈ 450 µM); MBC (K. pneumoniae): 100 µg/mL (≈ 450 µM); IC50 (184B5; Homo sapiens, 184B5, 48 h): 55 ± 6.7 µM; MIC (S. faecalis; 24 h): 50 µg/mL (≈ 225 µM); MBC (S. faecalis): > 200 µg/mL; MIC (S. epidermidis; 24 h): 12.5 µg/mL (≈ 56.3 µM); MBC (S. epidermidis): 12.5 µg/mL (≈ 56.3 µM); IC50 (H1299; Homo sapiens, NCI-H1299, 48 h, read-out: IC50 H1299, MTT assay, 48 h, mean ± SD): > 50 µM; IC50 (H1299; read-out: IC50 H1299, MTT assay, 48 h, mean ± SD): 82.5 ± 5.9 µM; IC50 (MCF-7; Homo sapiens, MCF7, 48 h, read-out: IC50 MCF-7, MTT assay, 48 h, mean ± SD): > 50 µM; IC50 (MCF-7; read-out: IC50 MCF-7, MTT assay, 48 h, mean ± SD): 55 ± 2.3 µM; IC50 (HT-29; Homo sapiens, HT-29, 48 h, read-out: IC50 HT-29, MTT assay, 48 h, mean ± SD): > 50 µM; IC50 (HT-29; read-out: IC50 HT-29, MTT assay, 48 h, mean ± SD): 61.2 ± 9.7 µM |
| O=C(CC[Se]CC=Cc1ccccc1)[c-]1cccc1.[Fe+2].c1cc[cH-]c1 [Compound 1c, 3-(Cinnamylselanyl)-1-ferrocenylpropan-1-one] |  |  | 24.6 ± 0.4 |  |  | >200 | >200 |  |  | 70.6 ± 6.6 |  |  |  |  | > 100 | >200 | 18.5 ± 5.4 | >200 |  |
